In PubChem BioAssay AID330 (DTP/NCI, 2004):
Several values for one entry are separate records, joined by “and”; a condition that tells them apart may be missing. Equal entries are not always repeated. Inconclusive results and toxic doses are left out. The calls were made as follows: active = survival T/C of 150% or more; inactive = T/C below 125% in these data.

Tested on: P388 leukemia ip, CD2F1 mice, survival T/C
Experiment: NCI In Vivo Anticancer Drug Screen. Data for tumor model P388 Leukemia (intraperitoneal) in CD2F1 (CDF1) mice
Conditions: endpoint: median survival time, higher = longer survival
In short: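 Mice carrying the transplanted tumor received test compound or vehicle. Survival was recorded in each group, and the value is the treated-group measurement divided by that of the vehicle-treated control group.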

[1] = dose: 25.0 mg/kg/injection, schedule: Q01DX009 (ip), vehicle: saline with Tween-80
[2] = dose: 50.0 mg/kg/injection, schedule: Q01DX009 (ip), vehicle: saline with Tween-80
[3] = dose: 100.0 mg/kg/injection, schedule: Q01DX009 (ip), vehicle: saline with Tween-80
[4] = dose: 200.0 mg/kg/injection, schedule: Q01DX009 (ip), vehicle: saline with Tween-80
[5] = dose: 50.0 mg/kg/injection, schedule: Q01DX009 (ip), vehicle: Klucel (hydroxypropylcellulose) (HPC)
[6] = dose: 100.0 mg/kg/injection, schedule: Q01DX009 (ip), vehicle: Klucel (hydroxypropylcellulose) (HPC)
[7] = dose: 200.0 mg/kg/injection, schedule: Q01DX009 (ip), vehicle: Klucel (hydroxypropylcellulose) (HPC)
[8] = dose: 50.0 mg/kg/injection, schedule: Q01DX005 (ip), vehicle: Klucel (hydroxypropylcellulose) (HPC)
[9] = dose: 100.0 mg/kg/injection, schedule: Q01DX005 (ip), vehicle: Klucel (hydroxypropylcellulose) (HPC)
[10] = dose: 200.0 mg/kg/injection, schedule: Q01DX005 (ip), vehicle: Klucel (hydroxypropylcellulose) (HPC)
[11] = dose: 50.0 mg/kg/injection, schedule: Q01DX009 (ip), vehicle: saline
[12] = dose: 100.0 mg/kg/injection, schedule: Q01DX009 (ip), vehicle: saline
[13] = dose: 200.0 mg/kg/injection, schedule: Q01DX009 (ip), vehicle: saline

Measured: T/C

Cc1ccc(C(=O)CC(O)(C(F)(F)F)C(F)(F)F)cc1
inactive: dose: 100.0 mg/kg/injection, schedule: Q04DX003 (ip), vehicle: other 100 % of control | dose: 200.0 mg/kg/injection, schedule: Q04DX003 (ip), vehicle: other 118 % of control | dose: 400.0 mg/kg/injection, schedule: Q04DX003 (ip), vehicle: other 122 % of control

COc1ccc(/C=C2\CCc3cc(OC)ccc3C2=O)cc1
inactive: dose: 6.25 mg/kg/injection, schedule: Q01DX009 (ip), vehicle: Klucel (hydroxypropylcellulose) (HPC) 117 % of control | dose: 12.5 mg/kg/injection, schedule: Q01DX009 (ip), vehicle: Klucel (hydroxypropylcellulose) (HPC) 117 % of control | dose: 25.0 mg/kg/injection, schedule: Q01DX009 (ip), vehicle: Klucel (hydroxypropylcellulose) (HPC) 115 % of control

CCc1nc(N)nc(N)c1-c1ccc(Cl)c(Cl)c1.[Cl][Pd][Cl]
inactive: dose: 12.5 mg/kg/injection, schedule: Q04DX003 (ip), vehicle: saline with Tween-80 95 % of control

COC(=O)/C=C/N1CCCC1
inactive: [1] 101 % of control | [2] 108 % of control | [3] 101 % of control | [4] 92 % of control

CCCCCCCCCCCCCCCC(CCCC)CCCCCC (centres undefined)
inactive: dose: 50.0 mg/kg/injection, schedule: Q01DX001 (ip), vehicle: saline sonified 100 % of control | dose: 100.0 mg/kg/injection, schedule: Q01DX001 (ip), vehicle: saline sonified 100 % of control | dose: 200.0 mg/kg/injection, schedule: Q01DX001 (ip), vehicle: saline sonified 100 % of control

CCOC(=O)c1cc(Cl)cc2c(=O)c3c([nH]c12)C(=O)c1c([nH]c2c(C(=O)OCC)cc(Cl)cc2c1=O)C3=O
inactive: [5] 99 % of control | [6] 105 % of control | [7] 98 % of control

COc1ccc(C2COc3cc4occc4cc3C2=O)c(OC)c1OC (centres undefined)
inactive: dose: 11.25 mg/kg/injection, schedule: Q01DX005 (ip), vehicle: Klucel (hydroxypropylcellulose) (HPC) 99 % of control | dose: 22.5 mg/kg/injection, schedule: Q01DX005 (ip), vehicle: Klucel (hydroxypropylcellulose) (HPC) 97 % of control | dose: 45.0 mg/kg/injection, schedule: Q01DX005 (ip), vehicle: Klucel (hydroxypropylcellulose) (HPC) 95 % of control | dose: 90.0 mg/kg/injection, schedule: Q01DX005 (ip), vehicle: Klucel (hydroxypropylcellulose) (HPC) 97 % of control | dose: 180.0 mg/kg/injection, schedule: Q01DX005 (ip), vehicle: Klucel (hydroxypropylcellulose) (HPC) 99 % of control

O=C(O)Cc1ccc2c(c1)Cc1cccnc1O2
inactive: [5] 108 % of control | [6] 96 % of control | [7] 119 % of control

O=c1[nH]c(=S)c2c(n1CCCO)CCC2
inactive: [8] 97 % of control | [9] 101 % of control | [10] 105 % of control

COc1ccc(-n2c(=O)c(N=Nc3ccccc3C)c(O)n(-c3ccccc3Cl)c2=S)cc1
inactive: dose: 100.0 mg/kg/injection, schedule: Q01DX001 (ip), vehicle: Klucel (hydroxypropylcellulose) (HPC) 100 % of control | dose: 200.0 mg/kg/injection, schedule: Q01DX001 (ip), vehicle: Klucel (hydroxypropylcellulose) (HPC) 99 % of control | dose: 400.0 mg/kg/injection, schedule: Q01DX001 (ip), vehicle: Klucel (hydroxypropylcellulose) (HPC) 95 % of control

C=C1C(=O)N2c3ccccc3C(C)(C)C2(S)C(=O)N1C (centres undefined)
inactive: [11] 102 % of control | [12] 100 % of control | [13] 100 % of control

O=C(O)CSC(=S)Nc1ccccn1
inactive: [2] 94 % of control | [3] 90 % of control | [4] 100 % of control

CC1[N-]CCCN(CCN(C)C)CCC[N-]C(C)C2CCCC1[N-]2.[Ni+3].[O-][Cl+3]([O-])([O-])O (centres undefined)
inactive: dose: 100.0 mg/kg/injection, schedule: Q01DX001 (ip), vehicle: saline 106 % of control

S=c1[nH]ccn1-c1c(Cl)cccc1Cl
inactive: [5] 99 % of control | [6] 100 % of control

CCc1ncc(CO)n1Cc1cccc2ccccc12
inactive: [2] 100 % of control | [3] 102 % of control | [4] 103 % of control

COc1ccc(N=Cc2ccc(C=Nc3ccc(OC)cc3OC)cc2)c(OC)c1
inactive: [11] 93 % of control | [12] 96 % of control | [13] 91 % of control

O=C1C(=O)C2CC3(CC1N2Cc1ccccc1)OCCO3
inactive: dose: 8.75 mg/kg/injection, schedule: Q01DX005 (ip), vehicle: Klucel (hydroxypropylcellulose) (HPC) 109 % of control | dose: 17.5 mg/kg/injection, schedule: Q01DX005 (ip), vehicle: Klucel (hydroxypropylcellulose) (HPC) 104 % of control | dose: 35.0 mg/kg/injection, schedule: Q01DX005 (ip), vehicle: Klucel (hydroxypropylcellulose) (HPC) 110 % of control

CCc1ccc(NC(=O)NC(=O)c2c(F)cccc2F)cc1
inactive: [1] 114 % of control | dose: 25.0 mg/kg/injection, schedule: Q01DX009 (ip), vehicle: saline 106 % of control | [2] 106 % of control and 116 % of control | [11] 103 % of control and 115 % of control | [3] 100 % of control and 120 % of control | [12] 101 % of control and 98 % of control | [4] 120 % of control and 97 % of control | [13] 100 % of control and 103 % of control

CCCCN=C1NS(=O)(=O)c2ccccc21
inactive: dose: 50.0 mg/kg/injection, schedule: Q01DX005 (ip), vehicle: saline with Tween-80 103 % of control | dose: 100.0 mg/kg/injection, schedule: Q01DX005 (ip), vehicle: saline with Tween-80 107 % of control | dose: 200.0 mg/kg/injection, schedule: Q01DX005 (ip), vehicle: saline with Tween-80 103 % of control

CC(C)=CCCc1ccc2c(c1)C(=O)c1cc3c(cc1C2=O)OCO3
inactive: dose: 3.75 mg/kg/injection, schedule: Q01DX005 (ip), vehicle: saline with Tween-80 101 % of control | dose: 7.5 mg/kg/injection, schedule: Q01DX005 (ip), vehicle: saline with Tween-80 91 % of control | dose: 15.0 mg/kg/injection, schedule: Q01DX005 (ip), vehicle: saline with Tween-80 98 % of control and 104 % of control | dose: 60.0 mg/kg/injection, schedule: Q01DX005 (ip), vehicle: saline with Tween-80 87 % of control

O=C(Nc1cccc(NC(=O)Nc2cc(C(F)(F)F)ccc2Cl)c1)Nc1cc(C(F)(F)F)ccc1Cl
inactive: dose: 60.0 mg/kg/injection, schedule: Q01DX005 (ip), vehicle: Klucel (hydroxypropylcellulose) (HPC) 89 % of control | dose: 120.0 mg/kg/injection, schedule: Q01DX005 (ip), vehicle: Klucel (hydroxypropylcellulose) (HPC) 91 % of control | dose: 240.0 mg/kg/injection, schedule: Q01DX005 (ip), vehicle: Klucel (hydroxypropylcellulose) (HPC) 100 % of control

O=NN(c1ccccc1)c1ccc([N+](=O)[O-])cc1
inactive: [2] 90 % of control | [3] 90 % of control

CP(=O)(c1ccccc1)c1ccccc1OCCCOCCCOc1ccccc1P(C)(=O)c1ccccc1 (centres undefined)
inactive: [8] 99 % of control | [9] 99 % of control | [10] 94 % of control

CCOC(=O)/C=C/c1c(Cl)n(C)c(=O)n(C)c1=O
inactive: dose: 7.5 mg/kg/injection, schedule: Q01DX005 (ip), vehicle: Klucel (hydroxypropylcellulose) (HPC) 102 % of control | dose: 15.0 mg/kg/injection, schedule: Q01DX005 (ip), vehicle: Klucel (hydroxypropylcellulose) (HPC) 100 % of control | dose: 30.0 mg/kg/injection, schedule: Q01DX005 (ip), vehicle: Klucel (hydroxypropylcellulose) (HPC) 100 % of control

CNC(=S)NNc1ccc(C)cc1
inactive: dose: 12.5 mg/kg/injection, schedule: Q01DX009 (ip), vehicle: other 87 % of control | dose: 25.0 mg/kg/injection, schedule: Q01DX009 (ip), vehicle: other 90 % of control | dose: 100.0 mg/kg/injection, schedule: Q01DX009 (ip), vehicle: other 92 % of control | dose: 200.0 mg/kg/injection, schedule: Q01DX009 (ip), vehicle: other 101 % of control
